The text below walks through data of patent US10980723B2, “Non-aqueous composition for hair frizz reduction” (The Procter & Gamble Company, priority 2017, dated 2021).

The nature of this test: Hair Switch Frizz Assessment by ten expert graders. The settings on record: for Results of Hair Switch Rating (frizz protection, clean feel, greasy feel) in words: aqueous compositions, Tables 3 and 4, 1% material; for Results of Hair Switch Rating (frizz protection, clean, smooth, greasy feel) in words: non-aqueous compositions, Tables 9 and 10, 1% material. The procedure: The leave-on treatment compositions are prepared by adding the Moisture Control Materials and perfume, if needed, into a 50:50 ethanol/water carrier and stirred until complete dissolution. The solution pH is adjusted using sodium hydroxide (50% w/w) to a final pH of 4.0-4.2. […] Method of Making Non-Aqueous Leave-on Treatment Compositions The non-aqueous leave-on treatment compositions are prepared by adding the Moisture Control Materials and perfume, if needed, into a mixture of Dimethiconol/Dimethicone and Cyclopentasiloxane/Isododecane and stirred until complete dissolution. Additionally, propylene glycol is added to aid in dissolution of moisture control materials at high levels of dimethicone. […] Method of Making of Non-Aqueous Leave-on Treatment Composition in a Solid Form The leave-on treatment composition in solid form is prepared by mixing together two different compositions. A premix and main-mix. […] In-Use Product Feel Assessment on Hair Switch Ten expert graders are asked to apply formulation on hair and rate each formulation based on a 5 point scale for in-use feel assessment, 5 being the highest (best feel) and 1 being the lowest rating. Method of Determining Stability of the Compositions Leave-on compositions are kept at 40° C. at 60% RH to visually assess any precipitation on day 1 and after a week of storage at these conditions.
Then, ten experts are asked to rate each hair switch in terms of frizz, clean feel, and greasy feel, based on a 5 point scale, 5 being the highest and 1 being the lowest rating.
Then, ten experts are asked to rate each hair switch in terms of frizz, clean feel, smooth feel and greasy feel, based on a 5 point scale, 5 being the highest and 1 being the lowest rating.

`O=C(O)c1ccc(O)cc1O` [2,4-Dihydroxybenzoic acid]: the “Results of Hair Switch Rating (frizz protection, clean feel, greasy feel) in words” value is “provide frizz protection with clean feel and without greasy feel negative”; the “Results of Hair Switch Rating (frizz protection, clean, smooth, greasy feel) in words” value is “provide frizz protection with clean and smooth feel and without greasy feel negative”.

For the molecule `CCCCCCCCC(CO)CCCCCC` (centres unmarked) [2-Hexyl-1-decanol], the “Results of Hair Switch Rating (frizz protection, clean feel, greasy feel) in words” value is “provide frizz protection with clean feel and without greasy feel negative”; the “Results of Hair Switch Rating (frizz protection, clean, smooth, greasy feel) in words” value was “provide frizz protection with clean, smooth feel and without greasy feel negative”.

For `O=C(OCCO)c1ccccc1O` [2-Hydroxyethyl salicylate], the “Results of Hair Switch Rating (frizz protection, clean feel, greasy feel) in words” value was “provide frizz protection with clean feel and without greasy feel negative”; the “Results of Hair Switch Rating (frizz protection, clean, smooth, greasy feel) in words” value is “provide frizz protection with clean, smooth feel and without greasy feel negative”.

Consider `O=S(=O)(O)c1ccc(O)cc1` [4-Hydroxybenzenesulphonic acid], for which the “Results of Hair Switch Rating (frizz protection, clean feel, greasy feel) in words” value is “provide frizz protection with clean feel and without greasy feel negative”; the “Results of Hair Switch Rating (frizz protection, clean, smooth, greasy feel) in words” value was “provide frizz protection with clean and smooth feel and without greasy feel negative”.

With `O=C(O)c1cc(Cl)ccc1O` [5-Chlorosalicylic acid], the “Results of Hair Switch Rating (frizz protection, clean feel, greasy feel) in words” value was “provide frizz protection with clean feel and without greasy feel negative”; the “Results of Hair Switch Rating (frizz protection, clean, smooth, greasy feel) in words” value is “provide frizz protection with clean and smooth feel and without greasy feel negative”.

Take `CC(C)CCCCCCCCCCCCCCCOC(=O)CCCCCCCCCCCCCCC(C)C` [Isostearyl isostearate]: the “Results of Hair Switch Rating (frizz protection, clean feel, greasy feel) in words” value is “provide frizz protection with clean feel and without greasy feel negative”; the “Results of Hair Switch Rating (frizz protection, clean, smooth, greasy feel) in words” value was “provide frizz protection with clean, smooth feel and without greasy feel negative”.

In the case of `O=C(O)c1ccccc1O` [Salicylic acid], the “Results of Hair Switch Rating (frizz protection, clean feel, greasy feel) in words” value was “provide frizz protection with clean feel and without greasy feel negative”; the “Results of Hair Switch Rating (frizz protection, clean, smooth, greasy feel) in words” value was “provide frizz protection with clean and smooth feel and without greasy feel negative”.
